Reference: the NIST ThermoML archive (doi:10.1007/s10765-010-0902-x)
Numbers after ± are expanded uncertainties.

Key:
[1] = xn = mol fraction of the nth substance listed; details: 298.15 K, 101 kPa, Liquid; for viscosity: Capillary tube (Ostwald / Ubbelohde) method
[2] = refractive index (Na D-line) (dimensionless); xn = mol fraction of the nth substance listed; details: 298.15 K, 101 kPa, Liquid, Standard Abbe refractometry
[3] = 298.15 K; 101 kPa; Liquid
[4] = refractive index (Na D-line) (dimensionless); details: 298.15 K; 101.33 kPa; Liquid; Standard Abbe refractometry

Structure (SMILES): CCCCCCCl [1-chlorohexane] + CCCCOC(C)=O
- viscosity ([1]; x2 = 0.0568): 0.662 ± 0.007 mPa·s
- viscosity ([1]; x2 = 0.1099): 0.659 ± 0.006 mPa·s
- viscosity ([1]; x2 = 0.1638): 0.657 ± 0.006 mPa·s
- viscosity ([1]; x2 = 0.2188): 0.655 ± 0.006 mPa·s
- viscosity ([1]; x2 = 0.3237): 0.652 ± 0.006 mPa·s
- viscosity ([1]; x2 = 0.3745): 0.651 ± 0.006 mPa·s
- viscosity ([1]; x2 = 0.4271): 0.65 ± 0.006 mPa·s
- viscosity ([1]; x2 = 0.4773): 0.649 ± 0.006 mPa·s
- viscosity ([1]; x2 = 0.5286): 0.648 ± 0.006 mPa·s
- viscosity ([1]; x2 = 0.6265): 0.646 ± 0.006 mPa·s
- viscosity ([1]; x2 = 0.6753): 0.645 ± 0.006 mPa·s
- viscosity ([1]; x2 = 0.7232): 0.645 ± 0.006 mPa·s
- viscosity ([1]; x2 = 0.8171): 0.645 ± 0.006 mPa·s
- viscosity ([1]; x2 = 0.8631): 0.645 ± 0.006 mPa·s
- mass density ([1]; x2 = 0): 873.39 ± 0.47 kg/m3
- mass density ([1]; x2 = 0.0568): 873.06 ± 0.47 kg/m3
- mass density ([1]; x2 = 0.1099): 872.97 ± 0.46 kg/m3
- mass density ([1]; x2 = 0.1638): 872.88 ± 0.45 kg/m3
- mass density ([1]; x2 = 0.2188): 872.81 ± 0.44 kg/m3
- mass density ([1]; x2 = 0.3237): 872.8 ± 0.43 kg/m3
- mass density ([1]; x2 = 0.3745): 872.83 ± 0.42 kg/m3
- mass density ([1]; x2 = 0.4271): 872.87 ± 0.42 kg/m3
- mass density ([1]; x2 = 0.4773): 872.98 ± 0.41 kg/m3
- mass density ([1]; x2 = 0.5286): 873.11 ± 0.4 kg/m3
- mass density ([1]; x2 = 0.6265): 873.53 ± 0.39 kg/m3
- mass density ([1]; x2 = 0.6753): 873.78 ± 0.39 kg/m3
- mass density ([1]; x2 = 0.7232): 874.04 ± 0.38 kg/m3
- mass density ([1]; x2 = 0.8171): 874.66 ± 0.37 kg/m3
- mass density ([1]; x2 = 0.8631): 875.01 ± 0.37 kg/m3
- refractive index ([2]; x2 = 0): 1.4171 ± 0.0004
- refractive index ([2]; x2 = 0.0568): 1.4159 ± 0.0004
- refractive index ([2]; x2 = 0.1099): 1.4148 ± 0.0004
- refractive index ([2]; x2 = 0.1638): 1.4137 ± 0.0004
- refractive index ([2]; x2 = 0.2188): 1.4125 ± 0.0004
- refractive index ([2]; x2 = 0.3237): 1.4102 ± 0.0004
- refractive index ([2]; x2 = 0.3745): 1.4091 ± 0.0004
- refractive index ([2]; x2 = 0.4271): 1.4078 ± 0.0004
- refractive index ([2]; x2 = 0.4773): 1.4066 ± 0.0004
- refractive index ([2]; x2 = 0.5286): 1.4053 ± 0.0004
- refractive index ([2]; x2 = 0.6265): 1.4028 ± 0.0004
- refractive index ([2]; x2 = 0.6753): 1.4015 ± 0.0004
- refractive index ([2]; x2 = 0.7232): 1.4001 ± 0.0004
- refractive index ([2]; x2 = 0.8171): 1.3973 ± 0.0004
- refractive index ([2]; x2 = 0.8631): 1.3959 ± 0.0004

Structure (SMILES): CCCCCCCCCl [1-chlorooctane]
- mass density [3]: 868.71 ± 0.37 kg/m3
- refractive index [4]: 1.4282 ± 0.0004

Structure (SMILES): CCCCCCCCCl [1-chlorooctane] + CCCCOC(C)=O
- viscosity ([1]; x2 = 0.0507): 1.032 ± 0.008 mPa·s
- viscosity ([1]; x2 = 0.1002): 1.007 ± 0.007 mPa·s
- viscosity ([1]; x2 = 0.1498): 0.981 ± 0.007 mPa·s
- viscosity ([1]; x2 = 0.1999): 0.959 ± 0.007 mPa·s
- viscosity ([1]; x2 = 0.3001): 0.911 ± 0.007 mPa·s
- viscosity ([1]; x2 = 0.3496): 0.889 ± 0.007 mPa·s
- viscosity ([1]; x2 = 0.4001): 0.867 ± 0.007 mPa·s
- viscosity ([1]; x2 = 0.4503): 0.846 ± 0.007 mPa·s
- viscosity ([1]; x2 = 0.5): 0.825 ± 0.007 mPa·s
- viscosity ([1]; x2 = 0.6019): 0.784 ± 0.006 mPa·s
- viscosity ([1]; x2 = 0.6999): 0.745 ± 0.006 mPa·s
- viscosity ([1]; x2 = 0.7998): 0.708 ± 0.006 mPa·s
- viscosity ([1]; x2 = 0.8999): 0.674 ± 0.006 mPa·s
- mass density ([1]; x2 = 0): 868.71 ± 0.37 kg/m3
- mass density ([1]; x2 = 0.0507): 868.69 ± 0.37 kg/m3
- mass density ([1]; x2 = 0.1002): 868.7 ± 0.37 kg/m3
- mass density ([1]; x2 = 0.1498): 868.74 ± 0.37 kg/m3
- mass density ([1]; x2 = 0.1999): 868.73 ± 0.37 kg/m3
- mass density ([1]; x2 = 0.3001): 868.77 ± 0.37 kg/m3
- mass density ([1]; x2 = 0.3496): 868.82 ± 0.37 kg/m3
- mass density ([1]; x2 = 0.4001): 868.99 ± 0.37 kg/m3
- mass density ([1]; x2 = 0.4503): 869.17 ± 0.37 kg/m3
- mass density ([1]; x2 = 0.5): 869.45 ± 0.37 kg/m3
- mass density ([1]; x2 = 0.6019): 870.13 ± 0.36 kg/m3
- mass density ([1]; x2 = 0.6999): 871.1 ± 0.36 kg/m3
- mass density ([1]; x2 = 0.7998): 872.48 ± 0.36 kg/m3
- mass density ([1]; x2 = 0.8999): 874.25 ± 0.36 kg/m3
- refractive index ([2]; x2 = 0): 1.4282 ± 0.0004
- refractive index ([2]; x2 = 0.0507): 1.4271 ± 0.0004
- refractive index ([2]; x2 = 0.1002): 1.4264 ± 0.0004
- refractive index ([2]; x2 = 0.1498): 1.4256 ± 0.0004
- refractive index ([2]; x2 = 0.1999): 1.4247 ± 0.0004
- refractive index ([2]; x2 = 0.3001): 1.4222 ± 0.0004
- refractive index ([2]; x2 = 0.3496): 1.4208 ± 0.0004
- refractive index ([2]; x2 = 0.4001): 1.4192 ± 0.0004
- refractive index ([2]; x2 = 0.4503): 1.4174 ± 0.0004
- refractive index ([2]; x2 = 0.5): 1.4156 ± 0.0004
- refractive index ([2]; x2 = 0.6019): 1.4114 ± 0.0004
- refractive index ([2]; x2 = 0.6999): 1.4069 ± 0.0004
- refractive index ([2]; x2 = 0.7998): 1.4018 ± 0.0004
- refractive index ([2]; x2 = 0.8999): 1.3968 ± 0.0004

Structure (SMILES): CCCCCCl [1-chloropentane]
- mass density [3]: 876.93 ± 0.47 kg/m3
- refractive index [4]: 1.4097 ± 0.0004

Structure (SMILES): CCCCCCl [1-chloropentane] + CCCCOC(C)=O
- viscosity ([1]; x2 = 0.05): 0.55 ± 0.006 mPa·s
- viscosity ([1]; x2 = 0.1): 0.552 ± 0.006 mPa·s
- viscosity ([1]; x2 = 0.15): 0.554 ± 0.006 mPa·s
- viscosity ([1]; x2 = 0.2): 0.557 ± 0.006 mPa·s
- viscosity ([1]; x2 = 0.3): 0.563 ± 0.006 mPa·s
- viscosity ([1]; x2 = 0.35): 0.567 ± 0.006 mPa·s
- viscosity ([1]; x2 = 0.4): 0.571 ± 0.006 mPa·s
- viscosity ([1]; x2 = 0.5): 0.58 ± 0.006 mPa·s
- viscosity ([1]; x2 = 0.6): 0.591 ± 0.006 mPa·s
- viscosity ([1]; x2 = 0.7019): 0.603 ± 0.006 mPa·s
- viscosity ([1]; x2 = 0.75): 0.61 ± 0.006 mPa·s
- viscosity ([1]; x2 = 0.7998): 0.616 ± 0.006 mPa·s
- viscosity ([1]; x2 = 0.9): 0.631 ± 0.006 mPa·s
- mass density ([1]; x2 = 0): 876.93 ± 0.47 kg/m3
- mass density ([1]; x2 = 0.05): 876.71 ± 0.46 kg/m3
- mass density ([1]; x2 = 0.1): 876.44 ± 0.45 kg/m3
- mass density ([1]; x2 = 0.15): 876.14 ± 0.45 kg/m3
- mass density ([1]; x2 = 0.2): 875.89 ± 0.44 kg/m3
- mass density ([1]; x2 = 0.3): 875.46 ± 0.43 kg/m3
- mass density ([1]; x2 = 0.35): 875.29 ± 0.42 kg/m3
- mass density ([1]; x2 = 0.4): 875.2 ± 0.42 kg/m3
- mass density ([1]; x2 = 0.5): 875.11 ± 0.4 kg/m3
- mass density ([1]; x2 = 0.6): 875.15 ± 0.39 kg/m3
- mass density ([1]; x2 = 0.7019): 875.34 ± 0.38 kg/m3
- mass density ([1]; x2 = 0.75): 875.48 ± 0.38 kg/m3
- mass density ([1]; x2 = 0.7998): 875.62 ± 0.37 kg/m3
- mass density ([1]; x2 = 0.9): 875.94 ± 0.36 kg/m3
- refractive index ([2]; x2 = 0): 1.4097 ± 0.0004
- refractive index ([2]; x2 = 0.05): 1.4081 ± 0.0004
- refractive index ([2]; x2 = 0.1): 1.4065 ± 0.0004
- refractive index ([2]; x2 = 0.15): 1.405 ± 0.0004
- refractive index ([2]; x2 = 0.2): 1.4036 ± 0.0004
- refractive index ([2]; x2 = 0.3): 1.401 ± 0.0004
- refractive index ([2]; x2 = 0.35): 1.3998 ± 0.0004
- refractive index ([2]; x2 = 0.4): 1.3987 ± 0.0004
- refractive index ([2]; x2 = 0.5): 1.3967 ± 0.0004
- refractive index ([2]; x2 = 0.6): 1.395 ± 0.0004
- refractive index ([2]; x2 = 0.7019): 1.3936 ± 0.0004
- refractive index ([2]; x2 = 0.75): 1.3931 ± 0.0004
- refractive index ([2]; x2 = 0.7998): 1.3926 ± 0.0004
- refractive index ([2]; x2 = 0.9): 1.3921 ± 0.0004

Structure (SMILES): CCCCOC(C)=O [butyl ethanoate]
- mass density [3]: 876.28 ± 0.36 kg/m3
- refractive index [4]: 1.3918 ± 0.0004

Structure (SMILES): CCCCOC(C)=O [butyl ethanoate] + CCCCCCCCCl
- mass density ([1]; x1 = 1): 876.28 ± 0.36 kg/m3
- refractive index ([2]; x1 = 1): 1.3918 ± 0.0004

Structure (SMILES): CCCCOC(C)=O [butyl ethanoate] + CCCCCCCCl
- mass density ([1]; x1 = 1): 876.28 ± 0.36 kg/m3
- refractive index ([2]; x1 = 1): 1.3918 ± 0.0004

Structure (SMILES): CCCCOC(C)=O [butyl ethanoate] + CCCCCCCl
- mass density ([1]; x1 = 1): 876.28 ± 0.36 kg/m3
- refractive index ([2]; x1 = 1): 1.3918 ± 0.0004

Structure (SMILES): CCCCOC(C)=O [butyl ethanoate] + CCCCCCl
- mass density ([1]; x1 = 1): 876.28 ± 0.36 kg/m3
- refractive index ([2]; x1 = 1): 1.3918 ± 0.0004

Structure (SMILES): CCCCOC(C)=O [butyl ethanoate] + CCCCCl
- mass density ([1]; x1 = 1): 876.28 ± 0.36 kg/m3
- refractive index ([2]; x1 = 1): 1.3918 ± 0.0004
